Assay results from US20250263408A1 (Uniquest Pty Ltd, priority 2022, published 2025).

Assays:
[1] = Brain Penetration Assays: Mouse Pharmacokinetics (plasma and brain levels after oral dose); type: in vivo; conditions: male, CD-1, mouse, mice, 1 hour post oral dose of 10 mg/kg; for concentration at 1 h: brain (free, unbound); for Kp at 1 h: brain / plasma (unbound), read-out: Kpu,u (ratio of unbound brain levels to unbound plasma levels)
Protocol: Male CD-1 mice (6-8 weeks of age, 3 animals per timepoint) were dosed via oral gavage (10 mL/kg) with compound (10 mg/kg, 0.5% methylcellulose in water). Blood samples were taken either non-terminal via saphenous vein or terminal via cardiac puncture and stored in 1.5 mL Eppendorf tubes containing 0.010 mL of 10% K2EDTA, mixed gently and placed in ice before centrifugation. Blood was centrifuged at 10,000 r.p.m. for 2 minutes, plasma harvested and stored at −80° C. Following blood collection at the terminal time points, animals were sacrificed with C02 and brains quickly removed, rinsed with cold saline (0.9% NaCl), surface vasculature ruptured, blotted with dry gauze or tissue and weighed. The whole brain was homogenized in 1.0 mL ice cold phosphate-buffered saline, pH 7.4 and the homogenates stored at −80° C. Compound concentrations were quantified in plasma and brain tissue by LC-MS/MS using a partially validated bioanalytical method.
(§1) The Rapid Equilibrium Dialysis (RED) method was employed with plasma (200 μL, BioIVT, USA) in phosphate buffered saline (PBS, 350 μL) incubated with compound (1 μM) at 37° C. for 5 hours shaking at 450 r.p.m. Acetonitrile (3 volumes) was added and the sample centrifuged for 5 minutes and 1050 r.p.m. then for 15 minutes at 4000 r.p.m. Compound concentrations were quantified via LC-MS/MS from supernatant and free drug was calculated.
as §1, with “RED” for “Rapid Equilibrium Dialysis (RED)”, “mouse brain homogenate (10% w/v prepared in-house))” for “plasma (200 μL, BioIVT, USA) in phosphate buffered saline (PBS, 350 μL)”, “14” for “15”

Syk = biological target: T1, Syk (Homo sapiens, UniProt P43405); assay: Syk Biochemical Assay (ADP-Glo luminescence); conditions: ATP 40 μM final, 60 minutes, read-out: SYK Biochem IC50
T1 construct: purchased Promega

[2] = test system: Ba/F3-WT (wild type) cells; assay: Ba/F3 Proliferation Assay, Ba/F3-WT (wild type) cells with mIL-3 (Resazurin); type: cell-based; conditions: Mus musculus, BaF3, 48 h, Ba/F3-WT cells +mIL-3, 48-hour incubation
Ba/F3-Syk cells = biological target: T2, Ba/F3-Syk cells (Homo sapiens, UniProt P43405); assay: Ba/F3 Proliferation Assay, Ba/F3-Syk cells (Resazurin); type: cell-based; conditions: 48-hour incubation
T2 construct: fused on or other part: Possible but unprinted fusion partner: TEL (ETV6), the usual partner for Ba/F3 lines transformed by Syk; Nothing on a partner is printed

Compound	concentration at 1 h [1]	Kp at 1 h [1]	IC50 (Syk)	EC50 [2]	EC50 (Ba/F3-Syk cells)
C[C@@H](Oc1nc(-c2ccn(C)c2)cc2ncccc12)[C@@H]1CNCCO1 [Compound 2.44, 7-(1-methyl-1H-pyrrol-3-yl)-5-[(1R)-1-[(2S)-morpholin-2-yl]ethoxy]-1,6-naphthyridine]	≤ 10 nM	> 0.3	31 nM	2110 nM	53.1 nM
Cn1cc(-c2cc3ncccc3c(OC[C@@H]3CNCC4(CCC4)O3)n2)cn1 [Compound 2.55, 7-(1-methyl-1H-pyrazol-4-yl)-5-{[(6S)-5-oxa-8-azaspiro[3.5]nonan-6-yl]methoxy}-1,6-naphthyridine]	> 25 nM	0.05 to 0.1	29.7 nM	3270 nM	43.8 nM
C[C@@H](Oc1nc(-c2cnn(C(C)(C)C)c2)cc2ncccc12)[C@@H]1CNCCO1 [Compound 2.67, 7-(1-tert-butyl-1H-pyrazol-4-yl)-5-[(1R)-1-[(2S)-morpholin-2-yl]ethoxy]-1,6-naphthyridine]	≤ 25 nM	0.1 to 0.2	29.5 nM	1860 nM	18.6 nM
CCn1ccc(-c2cc3ncccc3c(OC[C@@H]3CNCCCO3)n2)c1 [Compound 6.26, 7-(1-ethyl-1H-pyrrol-3-yl)-5-{[(2S)-1,4-oxazepan-2-yl]methoxy}-1,6-naphthyridine]	≤ 10 nM	0.1 to 0.2	32.1 nM	> 10000 nM	21.4 nM
CC(C)n1ccc(-c2cc3ncccc3c(O[C@H](C)[C@@H]3CNCCO3)n2)c1 [Compound 6.28, 5-[(1R)-1-[(2S)-morpholin-2-yl]ethoxy]-7-[1-(propan-2-yl)-1H-pyrrol-3-yl]-1,6-naphthyridine]	≤ 10 nM	0.2 to 0.3	41.8 nM	2680 nM	15 nM
C1=C(c2cc3ncccc3c(OC[C@@H]3CNCCO3)n2)CCC1 [Compound 10.1, 7-(cyclopent-1-en-1-yl)-5-{[(2S)-morpholin-2-yl]methoxy}-1,6-naphthyridine]	–	–	209 nM	> 10000 nM	487 nM
C[C@@H]1CNC[C@@H](COc2cc(-c3ccn(C(C)(C)C)c3)cc3nccnc23)O1 [Compound 12.8, 7-(1-tert-butyl-1H-pyrrol-3-yl)-5-{[(2S,6R)-6-methylmorpholin-2-yl]methoxy}quinoxaline]	–	–	5.1 nM	703 nM	1.3 nM
CC(C)(C)n1cc(-c2cc3ncccc3c(OC[C@@H]3CNC[C@H](C(F)(F)F)O3)n2)cn1 [Compound 13.13, 7-(1-tert-butyl-1H-pyrazol-4-yl)-5-([(2S,6R)-6-(trifluoromethyl)morpholin-2-yl]methoxy}-1,6-naphthyridine]	–	–	16.3 nM	1780 nM	41.8 nM
CC(C)(C)n1cc(-c2cc3ncccc3c(OC[C@@H]3CNC[C@@H](C(F)(F)F)O3)n2)cn1 [Compound 13.14, 7-(1-tert-butyl-1H-pyrazol-4-yl)-5-{[(2S,6S)-6-(trifluoromethyl)morpholin-2-yl]methoxy}-1,6-naphthyridine]	–	–	35 nM	1380 nM	233 nM
C[C@@H]1NCCO[C@@H]1COc1nc(-c2cnn(C3(C)CC3)c2)cc2ncccc12 [Compound 13.16, 7-[1-(1-methylcyclopropyl)-1H-pyrazol-4-yl]-5-{[(2S,3S)-3-methylmorpholin-2-yl]methoxy}-1,6-naphthyridine]	–	–	31.7 nM	518 nM	43 nM
CCc1ccnc2cc(-c3cnn(C(C)(C)C)c3)nc(OC[C@@H]3CNCC(C)(C)O3)c12 [Compound 14.14, 7-(1-tert-butyl-1H-pyrazol-4-yl)-5-{[(2S)-6,6-dimethylmorpholin-2-yl]methoxy}-4-ethyl-1,6-naphthyridine]	–	–	33.6 nM	1100 nM	20.6 nM
COc1ccnc2cc(-c3cnn(C(C)(C)C)c3)nc(OC[C@@H]3CNCC(C)(C)O3)c12 [Compound 14.15, 7-(1-tert-butyl-1H-pyrazol-4-yl)-5-{[(2S)-6,6-dimethylmorpholin-2-yl]methoxy}-4-methoxy-1,6-naphthyridine]	–	–	21.1 nM	519 nM	44 nM

The remaining lines, values ahead:

concentration at 1 h [1]	Kp at 1 h [1]	IC50 (Syk)	EC50 [2]	EC50 (Ba/F3-Syk cells)	Compound
≤ 25 nM	> 0.3	8.1 nM	6070 nM	45.5 nM	Cn1ccc(-c2cc3ncccc3c(OC[C@@H]3CNCC(C)(C)O3)n2)c1 [Compound 2.51, 5-{[(2S)-6,6-dimethylmorpholin-2-yl]methoxy}-7-(1-methyl-1H-pyrrol-3-yl)-1,6-naphthyridine]
≤ 25 nM	0.05 to 0.1	–	1020 nM	14.5 nM	CC(C)n1cc(-c2cc3ncccc3c(O[C@H](C)[C@@H]3CNCCO3)n2)cn1 [Compound 2.66, 5-[(1R)-1-[(2S)-morpholin-2-yl]ethoxy]-7-[1-(propan-2-yl)-1H-pyrazol-4-yl]-1,6-naphthyridine]
> 25 nM	0.2 to 0.3	35 nM	4610 nM	53.2 nM	Cn1ccc(-c2cc(OC[C@@H]3CNCC(C)(C)O3)c3cccnc3c2)c1 [Compound 3.10, 5-{[(2S)-6,6-dimethylmorpholin-2-yl]methoxy}-7-(1-methyl-1H-pyrrol-3-yl)quinoline]
> 25 nM	0.1 to 0.2	11.9 nM	5020 nM	21.4 nM	CCn1ccc(-c2cc3ncccc3c(OC[C@@H]3CNCC(C)(C)O3)n2)c1 [Compound 6.19, 5-{[(2S)-6,6-dimethylmorpholin-2-yl]methoxy}-7-(1-ethyl-1H-pyrrol-3-yl)-1,6-naphthyridine]
≤ 10 nM	0.2 to 0.3	9.7 nM	1700 nM	14.4 nM	CC1(C)CNC[C@@H](COc2cc(-c3ccn(C4COC4)c3)cc3ncccc23)O1 [Compound 7.11, 5-{[(2S)-6,6-dimethylmorpholin-2-yl]methoxy}-7-[1-(oxetan-3-yl)-1H-pyrrol-3-yl]quinoline]
–	–	6.5 nM	872 nM	6.4 nM	FC(F)Cn1ccc(-c2cc(OC[C@@H]3CNCC4(CCC4)O3)c3nccnc3c2)c1 [Compound 8.19, 7-[1-(2,2-difluoroethyl)-1H-pyrrol-3-yl]-5-{[(6S)-5-oxa-8-azaspiro[3.5]nonan-6-yl]methoxy}quinoxaline]
–	–	14.7 nM	551 nM	7.4 nM	CC(C)n1cc(-c2cc(OC[C@@H]3CNCC4(CCC4)O3)c3cccnc3c2)cn1 [Compound 11.8, 5-{[(6S)-5-oxa-8-azaspiro[3.5]nonan-6-yl]methoxy}-7-[1-(propan-2-yl)-1H-pyrazol-4-yl]quinoline]
–	–	19.8 nM	1910 nM	47.2 nM	CC(C)(C)n1cc(-c2cc3ncccc3c(OC[C@@H]3CNCC4(COC4)O3)n2)cn1 [Compound 13.15, 7-(1-tert-butyl-1H-pyrazol-4-yl)-5-{[(6S)-2,5-dioxa-8-azaspiro[3.5]nonan-6-yl]methoxy}-1,6-naphthyridine]
